Reference: ChEMBL document CHEMBL1667780, “Identification of a novel small molecule targeting UQCRB of mitochondrial complex III and its anti-angiogenic activity” (Bioorg Med Chem Lett, 2011)
Activity calls are given as the source filed them. No cut-off for these calls is given here.

Tests used:
[1] = molecular target: T1, Cytochrome b-c1 complex subunit 7 (Homo sapiens) (UniProt P14927); assay: Binding affinity to UQCRB in HUVEC at 30 uM after 24 hrs by ter-caumarin competitive binding assay; type: cell-based
T1 sequence (whole entry): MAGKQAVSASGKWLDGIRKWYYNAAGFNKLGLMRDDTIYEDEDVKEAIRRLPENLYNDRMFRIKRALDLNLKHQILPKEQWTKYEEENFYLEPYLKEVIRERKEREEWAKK

[2] = molecular target: T1, Cytochrome b-c1 complex subunit 7 (Homo sapiens); assay: Binding affinity to human UQCRB at 25 uM by surface plasmon resonance assay

Activity [1]: Active
Activity [2]: Active
Compound: C/C1=C\C[C@]2(C)C(=O)C(O)=C([C@H](C)CO)[C@H]2C/C=C(\C)[C@@H](O)CC/C(C)=C/CC1
